Assay results reported in patent publication US9115147B2, “Tricyclic derivatives and their pharmaceutical use and compositions” (Cephalon, Inc., priority 2009, dated 2015).
pKi: −log10 of the molar value.

These compounds were tested against T1, human 5-HT6 receptor (Homo sapiens, UniProt P50406) (assay: Human 5-HT6 Receptor Binding Assay ([3H]LSD, scintillation beads)). Conditions: Human 5-HT6 Ki app (nM), membranes of CHO-K1 cells with recombinant human 5-HT6 receptor, 4 nM [3H]LSD, Cheng-Prusoff.
T1 construct: host or cells: CHO-K1 cells, stably transfected; membranes prepared in house
T1 sequence (P50406 whole entry): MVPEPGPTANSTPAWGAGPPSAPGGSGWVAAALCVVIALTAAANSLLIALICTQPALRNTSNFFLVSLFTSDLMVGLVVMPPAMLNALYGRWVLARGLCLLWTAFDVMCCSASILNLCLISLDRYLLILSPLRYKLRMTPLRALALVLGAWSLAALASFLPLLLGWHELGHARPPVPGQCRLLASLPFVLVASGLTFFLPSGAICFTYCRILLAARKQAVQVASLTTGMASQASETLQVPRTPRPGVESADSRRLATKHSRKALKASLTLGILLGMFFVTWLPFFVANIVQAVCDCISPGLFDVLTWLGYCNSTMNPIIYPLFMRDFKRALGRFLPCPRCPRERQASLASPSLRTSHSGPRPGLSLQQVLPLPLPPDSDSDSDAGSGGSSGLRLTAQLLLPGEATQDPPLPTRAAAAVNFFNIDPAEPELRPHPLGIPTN
Procedure: Human 5-HT6 Receptor Binding Assay
Membranes were prepared from CHO-K1 cells stably transfected with the human 5-HT6 receptor (Euroscreen; ES-316-C). The cells were grown in Gibco Advanced DMEM-F12 (Cat#12634010) containing 2% dialyzed FBS (Hyclone Cat#SH30079.03). The cells were harvested in phosphate buffered saline (PBS) containing 0.1 mM EDTA and pelleted by centrifugation (1000×g), the supernatant was discarded and the pellets were stored at −80° C. prior to membrane preparation. Membranes were prepared as previously described (J Bio Chem. 1992, 267 (14) 9844-51). Briefly, frozen cell pellet was resuspended in a lysis buffer containing 5 mM Tris-HCl (pH 7.5), 5 mM EDTA and 1 complete EDTA-free protease inhibitor tablet (Roche Applied Science, Indianapolis, Ind.) per 50 mL buffer, and homogenized with a tissue homogenizer. The cell lysate was then centrifuged at 40,000×g for 30 min at 4° C. to collect the membranes. The membrane pellets were washed in membrane buffer (50 mM Tris-HCl (pH 7.5), 0.6 mM EDTA, 5 mM MgCl2, 1 complete EDTA-free protease inhibitor tablet per 50 mL buffer) using a tissue homogenizer. The membranes were centrifuged at 40,000×g for 30 min at 4° C. and the pellets were resuspended in membrane buffer containing 250 mM sucrose, and protein concentration was determined using the Coomassie Plus kit (Pierce Biotechnology, Rockford, Ill.).
Membranes prepared from cells expressing recombinant human 5-HT6 receptor (h5-HT6) were resuspended in assay buffer containing 50 mM Tris HCl, (pH7.4), 4 mM CaCl2, 10 μg/mL saponin, and 0.1% (w/v) ascorbic acid. Membranes were preincubated using 1.75 μg membrane protein and 0.25 mg FlashBlue scintillation beads (PerkinElmer catalogue #FB001) per well at 4° C. for 30 min. […] Test compounds or assay controls for total and non-specific binding were diluted in DMSO as 100× solutions and serially diluted by half log concentrations on a Perkin Elmer JANUS Automated Workstation. Serotonin (10 μM final concentration) was used to determine non-specific binding in the assay. Plates were read using the Microbeta Trilux 1450 LSC and luminescence counter. Data were analyzed by nonlinear […] using the dose-response equation (variable slope) to calculate IC50 in XLfit4 (ID Business Solutions Inc.): y=(Bottom+((Top−Bottom)/(1+((IC50/x)^Hill slope))))
Ki value was then calculated according to the Cheng-Prusoff method using the equation below (Cheng and Prusoff, 1973): Ki, app=IC50/(1+([radioligand]/Kd))

Compound	Ki [nM]
Cc1cccc(S(=O)(=O)c2ccc3c(c2)OCC2NCCC32)n1 (single isomer, unassigned) [Example 23, 7-[(6-methylpyridin-2-yl)sulfonyl]-1,2,3,3a,4,9b-hexahydrochromeno[3,4-b]pyrrole]	< 500
O=S(=O)(c1cncc(Br)c1)c1ccc2c(c1)OCC1NCCC21 (single isomer, unassigned) [Example 28, 7-[(5-bromopyridin-3-yl)sulfonyl]-1,2,3,3a,4,9b-hexahydrochromeno[3,4-b]pyrrole]	< 500
O=S(=O)(c1cncc(F)c1)c1ccc2c(c1)OCC1NCCC21 (single isomer, unassigned) [Example 29, 7-[(5-fluoropyridin-3-yl)sulfonyl]-1,2,3,3a,4,9b-hexahydrochromeno[3,4-b]pyrrole]	< 500
O=S(=O)(c1cncc(Cl)c1)c1ccc2c(c1)OCC1NCCC21 (single isomer, unassigned) [Example 30, 7-[(5-chloropyridin-3-yl)sulfonyl]-1,2,3,3a,4,9b-hexahydrochromeno[3,4-b]pyrrole]	< 500
O=S(=O)(c1cncc(F)c1)c1ccc2c(c1)OCC1NCCC21 (single isomer, unassigned) [Example 32, 7-[(5-fluoropyridin-3-yl)sulfonyl]-1,2,3,3a,4,9b-hexahydrochromeno[3,4-b]pyrrole]	> 1000
COc1cncc(S(=O)(=O)c2ccc3c(c2)OCC2NCCC32)c1 (single isomer, unassigned) [Example 33, 7-[(5-methoxypyridin-3-yl)sulfonyl]-1,2,3,3a,4,9b-hexahydrochromeno[3,4-b]pyrrole]	< 500
COc1cncc(S(=O)(=O)c2ccc3c(c2)OCC2NCCC32)c1 (single isomer, unassigned) [Example 35, 7-[(5-methoxypyridin-3-yl)sulfonyl]-1,2,3,3a,4,9b-hexahydrochromeno[3,4-b]pyrrole]	> 1000

Same assay, conditions: membranes of CHO-K1 cells with recombinant human 5-HT6 receptor, 4 nM [3H]LSD, Cheng-Prusoff; read-out: Human 5-HT6 Ki app

Compound	pKi
CC(C)Oc1cc(F)cc(S(=O)(=O)c2ccc3c(c2)OCC2NCCC32)c1 (single isomer, unassigned) [Example 27, 7-{[3-fluoro-5-(propan-2-yloxy)phenyl]sulfonyl}-1,2,3,3a,4,9b-hexahydrochromeno[3,4-b]pyrrole]	> 6.30
COc1cc(F)cc(S(=O)(=O)c2ccc3c(c2)OCC2NCCC32)c1 (single isomer, unassigned) [Example 36, 7-[(3-fluoro-5-methoxyphenyl)sulfonyl]-1,2,3,3a,4,9b-hexahydrochromeno[3,4-b]pyrrole]	> 6.30
O=S(=O)(c1ccc2c(c1)OCC1NCCC21)c1cccc2c1CCO2 (single isomer, unassigned) [Example 37, 7-(2,3-dihydro-1-benzofuran-4-ylsulfonyl)-1,2,3,3a,4,9b-hexahydrochromeno[3,4-b]pyrrole]	> 6.30
CN(C)C(=O)c1cccc(S(=O)(=O)c2ccc3c(c2)OC[C@H]2NCC[C@@H]32)c1 (single isomer, unassigned) [Example 38]	> 6.30
CC(C)COc1cc(F)cc(S(=O)(=O)c2ccc3c(c2)OCC2NCCC32)c1 (single isomer, unassigned) [Example 39, 7-{[3-fluoro-5-(2-methylpropoxy)phenyl]sulfonyl}-1,2,3,3a,4,9b-hexahydrochromeno[3,4-b]pyrrole]	> 6.30

More lines, now with the values ahead:

pKi	Compound
> 6.30	CCOc1cc(F)cc(S(=O)(=O)c2ccc3c(c2)OCC2NCCC32)c1 (single isomer, unassigned) [Example 40, 7-[(3-ethoxy-5-fluorophenyl)sulfonyl]-1,2,3,3a,4,9b-hexahydrochromeno[3,4-b]pyrrole]
> 6.30	O=S(=O)(c1ccc2c(c1)OCC1NCCC21)c1cccc(F)c1F (single isomer, unassigned) [Example 41, 7-[(2,3-difluorophenyl)sulfonyl]-1,2,3,3a,4,9b-hexahydrochromeno[3,4-b]pyrrole]
> 6.30	O=S(=O)(c1ccc2c(c1)OCC1NCCC21)c1cc(F)cc(F)c1F (single isomer, unassigned) [Example 42, 7-[(2,3,5-trifluorophenyl)sulfonyl]-1,2,3,3a,4,9b-hexahydrochromeno[3,4-b]pyrrole]
> 6.30	CC(C)Oc1cc(F)cc(S(=O)(=O)c2ccc3c(c2)OCC2NCCC32)c1 (single isomer, unassigned) [Example 43, 7-{[3-fluoro-5-(propan-2-yloxy)phenyl]sulfonyl}-1,2,3,3a,4,9b-hexahydrochromeno[3,4-b]pyrrole]
> 6.30	COc1cc(F)cc(S(=O)(=O)c2ccc3c(c2)OCC2NCCC32)c1 (single isomer, unassigned) [Example 44, 7-[(3-fluoro-5-methoxyphenyl)sulfonyl]-1,2,3,3a,4,9b-hexahydrochromeno[3,4-b]pyrrole]
> 6.30	O=S(=O)(c1ccc2c(c1)OCC1NCCC21)c1cccc2c1CCO2 (single isomer, unassigned) [Example 45, 7-(2,3-dihydro-1-benzofuran-4-ylsulfonyl)-1,2,3,3a,4,9b-hexahydrochromeno[3,4-b]pyrrole]
> 6.30	CN(C)C(=O)c1cccc(S(=O)(=O)c2ccc3c(c2)OC[C@@H]2NCC[C@H]32)c1 (single isomer, unassigned) [Example 46]
> 6.30	CC(C)COc1cc(F)cc(S(=O)(=O)c2ccc3c(c2)OCC2NCCC32)c1 (single isomer, unassigned) [Example 47, 7-{[3-fluoro-5-(2-methylpropoxy)phenyl]sulfonyl}-1,2,3,3a,4,9b-hexahydrochromeno[3,4-b]pyrrole]
> 6.30	CCOc1cc(F)cc(S(=O)(=O)c2ccc3c(c2)OCC2NCCC32)c1 (single isomer, unassigned) [Example 48, 7-[(3-ethoxy-5-fluorophenyl)sulfonyl]-1,2,3,3a,4,9b-hexahydrochromeno[3,4-b]pyrrole]
> 6.30	O=S(=O)(c1ccc2c(c1)OCC1NCCC21)c1cccc(F)c1F (single isomer, unassigned) [Example 49, 7-[(2,3-difluorophenyl)sulfonyl]-1,2,3,3a,4,9b-hexahydrochromeno[3,4-b]pyrrole]
> 6.30	O=S(=O)(c1ccc2c(c1)OCC1NCCC21)c1cc(F)cc(F)c1F (single isomer, unassigned) [Example 50, 7-[(2,3,5-trifluorophenyl)sulfonyl]-1,2,3,3a,4,9b-hexahydrochromeno[3,4-b]pyrrole]
> 6.30	O=S(=O)(c1cncc(C(F)(F)F)c1)c1ccc2c(c1)OCC1NCCC21 (single isomer, unassigned) [Example 51, 7-{[5-(trifluoromethyl)pyridin-3-yl]sulfonyl}-1,2,3,3a,4,9b-hexahydrochromeno[3,4-b]pyrrole]
6.00 to 6.30	O=S(=O)(c1cncc(C(F)(F)F)c1)c1ccc2c(c1)OCC1NCCC21 (single isomer, unassigned) [Example 52, 7-{[5-(trifluoromethyl)pyridin-3-yl]sulfonyl}-1,2,3,3a,4,9b-hexahydrochromeno[3,4-b]pyrrole]
> 6.30	O=S(=O)(c1ccccc1)c1ccc2c(c1)C1CCNC1CO2 (single isomer, unassigned) [Example 53, 8-(phenylsulfonyl)-1,2,3,3a,4,9b-hexahydrochromeno[3,4-b]pyrrole]
> 6.30	O=S(=O)(c1ccccc1)c1ccc2c(c1)C1CCNC1CO2 (single isomer, unassigned) [Example 54, 8-(phenylsulfonyl)-1,2,3,3a,4,9b-hexahydrochromeno[3,4-b]pyrrole]

Same assay, conditions: read-out: Human 5-HT6 Ki app; membranes of CHO-K1 cells with recombinant human 5-HT6 receptor, 4 nM [3H]LSD, Cheng-Prusoff

Compound	pKi
Cc1cccc(S(=O)(=O)c2ccc3c(c2)OCC2NCCC32)n1 (single isomer, unassigned) [Example 24, 7-[(6-methylpyridin-2-yl)sulfonyl]-1,2,3,3a,4,9b-hexahydrochromeno[3,4-b]pyrrole]	> 6.30
O=S(=O)(c1cncc(Br)c1)c1ccc2c(c1)OCC1NCCC21 (single isomer, unassigned) [Example 31, 7-[(5-bromopyridin-3-yl)sulfonyl]-1,2,3,3a,4,9b-hexahydrochromeno[3,4-b]pyrrole]	> 6.30
O=S(=O)(c1cncc(Cl)c1)c1ccc2c(c1)OCC1NCCC21 (single isomer, unassigned) [Example 34, 7-[(5-chloropyridin-3-yl)sulfonyl]-1,2,3,3a,4,9b-hexahydrochromeno[3,4-b]pyrrole]	> 6.30
